test system: HEK293 cells; assay: Preliminary screening as mRNA vectors, EGFP mRNA transfection of HEK293 cells; assay type: cell-based; conditions: EGFP mRNA 50 ng per well, 96-well plates; percentage of GFP fluorescent cells relative to total number of cells (Hoechst)
Experimental: Cell line: HEK293 cells (ATCC CRL-1573™)
Medium: DMEM supplemented with 10% fetal bovine serum (Invitrogen)
Screening: cell transfection on 96-well plates
Detection (readout): percentage of the number of GFP fluorescent cells relative to the total number of cells (the total number of cells was determined using nucleus dye Hoechst). Lipofectamine2000 (Invitrogen) was used as the positive control.
Method: the experimental method was basically the same with Example 4, and the mass of EGFP mRNA (TriLink) for transfection was 50 ng per well.

First: CCCCCCCCCCCCCCCCSc1nc(NCCCCCCC)nc(NCCN(C)C)n1 [Compound D1S16N7]
Second: CCCCCCCCCCCCCNc1nc(NCCN(C)C)nc(SCCCCCCCCC)n1 [Compound D1S9N13]
The “Absolute mRNA transfection efficiency in HEK293 cells” value (from here on “Absolute mRNA transfection efficiency”) of the first is higher: 65.1% for the first, 25.8% for the second.

Going from `CCCCCCCCCCCCSc1nc(NCCN2CCCC2)nc(N(CCCCCCCCCCCC)CCCCCCCCCCCC)n1` [D3S12^2N12] to `CCCCCCCCCCCCSc1nc(NCCN2CCCCC2)nc(N(CCCCCCCCCCCC)CCCCCCCCCCCC)n1` [D4S12^2N12], the “Absolute mRNA transfection efficiency” value falls from 2.2% to 0.5%.

Compared with `CCCCCCCCCCCCCCCSc1nc(NCCCCCCCC)nc(NCCN(CC)CC)n1` [Compound D7S15N8], `CCCCCCCCCCCCCCCCCCSc1nc(NCCCCCCC)nc(NCCN(C)C)n1` [Compound D1S18N7] is higher in “Absolute mRNA transfection efficiency” value: 18.0% for the first, 63.0% for the second.

Compared with `CCCCCCCCCCCCCCCCCCNc1nc(NCC2CCN(C)CC2)nc(SCCCCCCCCCCCC)n1` [Compound D10S12N18], `CCCCCCCCCCCCCCCCCCNc1nc(NCC2CCN(C)CC2)nc(SCCCCCCCCCCCCCCCCCC)n1` [Compound D10S18N18] is lower in “Absolute mRNA transfection efficiency” value: 4.1% for the first, 0.1% for the second.

First: CCCCCCCSc1nc(NCCCCCC)nc(NCCCN2CCN(C)CC2)n1 [Compound D9S7N6]
Second: CCCCCCCCCCSc1nc(NCCCCCC)nc(NCCCN2CCN(C)CC2)n1 [Compound D9S10N6]
The “Absolute mRNA transfection efficiency” value of the first is lower: 0.8% for the first, 1.1% for the second.

Compared with `CCCCCCCCCCCCCCCCSc1nc(NCCCCCCCC)nc(NCCN2CCOCC2)n1` [Compound D2S16N8], `CCCCCCCCCCCCCCCCCCSc1nc(NCCCCCC)nc(NCCN2CCOCC2)n1` [Compound D2S18N6] is lower in “Absolute mRNA transfection efficiency” value: 19.1% for the first, 0.4% for the second.

First: CCCCCCCCCCCCCCCCCCSc1nc(NCCCCCCC)nc(NCCN2CCN(C)CC2)n1 [Compound D5S18N7]
Second: CCCCCCCCCCCCCCCCCCSc1nc(NCCCCCCCC)nc(NCCN2CCN(C)CC2)n1 [Compound D5S18N8]
The “Absolute mRNA transfection efficiency” value of the first is higher: 67.7% for the first, 33.4% for the second.

First: CCCCCCCCCCCCCCCCCCSc1nc(NCCCCCCCCCCC)nc(NCCN2CCN(C)CC2)n1 [Compound D5S18N11]
Second: CCCCCCCCCCCCCNc1nc(NCCN2CCN(C)CC2)nc(SCCCCCCCCCC)n1 [Compound D5S10N13]
The “Absolute mRNA transfection efficiency” value of the first is lower: 1.1% for the first, 4.6% for the second.

First: CCCCCCCCCCCSc1nc(NCCN(C)C)nc(SCCCCCCCC)n1 [Compound D1S8S11]
Second: CCCCCCCCCCCCSc1nc(NCCCN(C)C)nc(SCCCCCC)n1 [Compound D6S6S12]
The “Absolute mRNA transfection efficiency” value of the first is lower: 3.0% for the first, 24.7% for the second.

Compared with `CCCCCCCCCSc1nc(NCCCN(C)C)nc(SCCCCCCCC)n1` [Compound D6S8S9], `CCCCCCSc1nc(NCCCN(C)C)nc(SCCCCCC)n1` [Compound D6S6S6] is lower in “Absolute mRNA transfection efficiency” value: 59.9% for the first, 12.6% for the second.

Compared with `CCCCCCCCCCCCCCCCNc1nc(NCCCN2CCOCC2)nc(SCCCCCCCCCCCC)n1` [Compound D8S12N16], `CCCCCCCCCCCCCCCCSc1nc(NCCCCCCCCCCCCCCC)nc(NCCCN2CCOCC2)n1` [Compound D8S16N15] is lower in “Absolute mRNA transfection efficiency” value: 0.7% for the first, 0.0% for the second.

Going from `CCCCCCCCCSc1nc(NCCCCCC)nc(NCCCN2CCOCC2)n1` [Compound D8S9N6] to `CCCCCCCCNc1nc(NCCCN2CCOCC2)nc(SCCCCCCCC)n1` [Compound D8S8N8], the “Absolute mRNA transfection efficiency” value rises from 0.6% to 1.3%.

Going from `CCCCCCCCCCCCCCCCCCSc1nc(NCCCCCCCCCCCCCCC)nc(NCCN(CC)CC)n1` [Compound D7S18N15] to `CCCCCCCCCCCCCCCCNc1nc(NCCN(CC)CC)nc(SCCCCCCCCCCCCCCCC)n1` [Compound D7S16N16], the “Absolute mRNA transfection efficiency” value rises from 0.3% to 1.6%.

First: CCCCCCCCCCCCN(CCCCCCCCCCCC)c1nc(NCCN(C)C)nc(SCCCCCCCCCC)n1 [D1S10^2N12]
Second: CCCCCCCCCCCCN(CCCCCCCCCCCC)c1nc(NCCN2CCN(C)CC2)nc(SCCCCCCCCCCC)n1 [D5S11^2N12]
The “Absolute mRNA transfection efficiency” value of the first is lower: 0.4% for the first, 0.6% for the second.

Compared with `CCCCCCCCCCCCCCCNc1nc(NCCCN2CCOCC2)nc(SCCCCCCCCCC)n1` [Compound D8S10N15], `CCCCCCCCCCCCCNc1nc(NCCN2CCOCC2)nc(SCCCCCCCCCCC)n1` [Compound D2S11N13] is higher in “Absolute mRNA transfection efficiency” value: 0.2% for the first, 1.9% for the second.

Going from `CCCCCCCCCNc1nc(NCCN2CCCCC2)nc(SCCCCCCCC)n1` [Compound D4S8N9] to `CCCCCCCCCSc1nc(NCCCCCCCC)nc(NCCN2CCCCC2)n1` [Compound D4S9N8], the “Absolute mRNA transfection efficiency” value rises from 2.3% to 6.6%.

First: CCCCCCSc1nc(NCCN2CCCC2)nc(SCCCCCC)n1 [Compound D3S6S6]
Second: CCCCCCCCCCCCSc1nc(NCCN2CCCC2)nc(SCCCCCCC)n1 [Compound D3S7S12]
The “Absolute mRNA transfection efficiency” value of the first is lower: 1.9% for the first, 5.4% for the second.

First: CCCCCCCCCCCCCNc1nc(NCCN2CCOCC2)nc(SCCCCCCCCC)n1 [Compound D2S9N13]
Second: CCCCCCCCCCSc1nc(NCCCCCCC)nc(NCCN2CCOCC2)n1 [Compound D2S10N7]
The “Absolute mRNA transfection efficiency” value of the first is higher: 12.3% for the first, 0.5% for the second.

Going from `CCCCCCCCCCCCCCCCSc1nc(NCCCCCCCCCCCC)nc(NCCN2CCCC2)n1` [Compound D3S16N12] to `CCCCCCCCCCCCCCCNc1nc(NCCN2CCCCC2)nc(SCCCCCCCCCCCC)n1` [Compound D4S12N15], the “Absolute mRNA transfection efficiency” value rises from 1.7% to 2.0%.

First: CCCCCCCCCSc1nc(NCCCN2CCOCC2)nc(SCCCCCC)n1 [Compound D8S6S9]
Second: CCCCCCCCCCSc1nc(NCCCN2CCOCC2)nc(SCCCCCCCC)n1 [Compound D8S8S10]
The “Absolute mRNA transfection efficiency” value of the first is lower: 5.0% for the first, 40.9% for the second.

First: CCCCCCCCCNc1nc(NCCN2CCN(C)CC2)nc(SCCCCCCCC)n1 [Compound D5S8N9]
Second: CCCCCCCCCCCCSc1nc(NCCCCCCCC)nc(NCCN2CCN(C)CC2)n1 [Compound D5S12N8]
The “Absolute mRNA transfection efficiency” value of the first is lower: 11.2% for the first, 22.6% for the second.

`CCCCCCCCCCCCCCCCCCSc1nc(NCCCCCCCCCCCCCCCC)nc(NCCCN2CCOCC2)n1` [Compound D8S18N16] and `CCCCCCCCCCCCCCCCNc1nc(NCCN2CCOCC2)nc(SCCCCCCCCCCCCCCCC)n1` [Compound D2S16N16] are the same in “Absolute mRNA transfection efficiency” value: 0.0% for the first, 0.0% for the second.

Compared with `CCCCCCCCSc1nc(NCCCCCC)nc(NCCN2CCCCC2)n1` [Compound D4S8N6], `CCCCCCCCNc1nc(NCCN2CCCCC2)nc(SCCCCCC)n1` [Compound D4S6N8] is lower in “Absolute mRNA transfection efficiency” value: 2.7% for the first, 0.3% for the second.

Going from `CCCCCCCCCCCCCCCCCCSc1nc(NCCN(CC)CC)nc(SCCCCCC)n1` [Compound D7S6S18] to `CCCCCCCCCCSc1nc(NCCN(CC)CC)nc(SCCCCCC)n1` [Compound D7S6S10], the “Absolute mRNA transfection efficiency” value falls from 9.5% to 2.7%.

Going from `CCCCCCCCCCCCCCCSc1nc(NCCCCCCCCCCCC)nc(NCCN2CCCCC2)n1` [Compound D4S15N12] to `CCCCCCCCCCCCCCCNc1nc(NCCN2CCCCC2)nc(SCCCCCCCC)n1` [Compound D4S8N15], the “Absolute mRNA transfection efficiency” value rises from 1.6% to 2.6%.

Compared with `CCCCCCCCCCCCCCCCCCSc1nc(NCCN2CCN(C)CC2)nc(SCCCCCCC)n1` [Compound D5S7S18], `CCCCCCCCCCCCSc1nc(NCCN2CCN(C)CC2)nc(SCCCCCCCC)n1` [Compound D5S8S12] is higher in “Absolute mRNA transfection efficiency” value: 3.8% for the first, 47.4% for the second.

Going from `CCCCCCCCCCCCCCCCSc1nc(NCCCCCC)nc(NCC2CCN(C)CC2)n1` [Compound D10S16N6] to `CCCCCCCCCCCCNc1nc(NCC2CCN(C)CC2)nc(SCCCCCCCCCCC)n1` [Compound D10S11N12], the “Absolute mRNA transfection efficiency” value falls from 86.9% to 24.7%.

Going from `CCCCCCCCCCSc1nc(NCCCCCCCCC)nc(NCC2CCN(C)CC2)n1` [Compound D10S10N9] to `CCCCCCCCCCCCCNc1nc(NCC2CCN(C)CC2)nc(SCCCCCCC)n1` [Compound D10S7N13], the “Absolute mRNA transfection efficiency” value rises from 4.2% to 70.8%.

Going from `CCCCCCCCCCCCCCCNc1nc(NCCCN2CCN(C)CC2)nc(SCCCCCCC)n1` [Compound D9S7N15] to `CCCCCCCCCCCCCNc1nc(NCCN2CCCCC2)nc(SCCCCCCCCC)n1` [Compound D4S9N13], the “Absolute mRNA transfection efficiency” value falls from 32.6% to 10.8%.

First: CCCCCCCCCCCCCCCCCCNc1nc(NCCN2CCCCC2)nc(SCCCCCCCCCCCCCCC)n1 [Compound D4S15N18]
Second: CCCCCCCCCCCCNc1nc(NCCN2CCCCC2)nc(SCCCCCCCCC)n1 [Compound D4S9N12]
The “Absolute mRNA transfection efficiency” value of the first is lower: 5.1% for the first, 9.5% for the second.

Going from `CCCCCCCCCNc1nc(NCCCN2CCOCC2)nc(SCCCCCCCC)n1` [Compound D8S8N9] to `CCCCCCCCCCCCCCCCSc1nc(NCCCN2CCOCC2)nc(SCCCCCC)n1` [Compound D8S6S16], the “Absolute mRNA transfection efficiency” value rises from 3.5% to 43.1%.

First: CCCCCCCCCCCNc1nc(NCC2CCN(C)CC2)nc(SCCCCCCC)n1 [Compound D10S7N11]
Second: CCCCCCCCCCSc1nc(NCC2CCN(C)CC2)nc(SCCCCCC)n1 [Compound D10S6S10]
The “Absolute mRNA transfection efficiency” value of the first is higher: 25.3% for the first, 22.4% for the second.

First: CCCCCCCCCCCCCCSc1nc(NCCCCCC)nc(NCCN(C)C)n1 [Compound D1S14N6]
Second: CCCCCCCCCCCCCCCNc1nc(NCCCN(C)C)nc(SCCCCCCCCCCCCCC)n1 [Compound D6S14N15]
The “Absolute mRNA transfection efficiency” value of the first is higher: 29.1% for the first, 0.1% for the second.

Reference: patent publication US20230123334A1, “AMINO LIPID COMPOUND, PREPARATION METHOD THEREFOR, AND APPLICATION THEREOF” (SHENZHEN SHENXIN BIOTECHNOLOGY CO., LTD., priority 2020, published 2023)
